# Positions of bridges follow the written chain, without caps; N, C: chain ends. Non-standard residues stand in square brackets, D forms with d. Residues, ends and D or L forms follow the SMILES beside them. *: point of attachment. εLys(α-Octadecanedioyl) = O=C(O)CCCCCCCCCCCCCCCCC(=O)N[C@@H](CCCCN*)C(=O)O; X6 = O=C(O)CCCCCCCCCCCCCCCCC(=O)N[C@@H](CCC(=O)NCCCOCCOCCOCCCN*)C(=O)O; X13 = O=C(O)CCCCCCCCCCCCCCC(=O)N[C@@H](CCC(=O)NCCCOCCOCCOCCCN*)C(=O)O; X11 = O=C(O)CCCCCCCCCCCCC(=O)N[C@@H](CCC(=O)NCCCOCCOCCOCCCN*)C(=O)O; Trp(1-CH2COOH) = N[C@@H](Cc1cn(CC(=O)O)c2ccccc12)C(=O)O; X14 = O=C(O)CCCCCCCCCCNC(=O)CCC(=O)NCCCOCCOCCOCCCN*; d(cisHyp) = O=C(O)[C@H]1C[C@@H](O)CN1; Palmitoyl = CCCCCCCCCCCCCCCC(=O)*; Hyp = O=C(O)[C@@H]1C[C@@H](O)CN1; NMeNle = CCCC[C@H](NC)C(=O)O; AEEEA = NCCOCCOCCOCC(=O)O; NMeA = CN[C@@H](C)C(=O)O; Aun = NCCCCCCCCCCC(=O)O; Dab = NCC[C@H](N)C(=O)O; Dap = NC[C@H](N)C(=O)O
# Biological target: T1, PD-L1 (Homo sapiens, UniProt Q9NZQ7)
# T1 construct: hPDL1(19-239)-TVMV-His; made in house; host or cells: HEK293T
# T1 sequence (Q9NZQ7 with tags, fused parts or gaps): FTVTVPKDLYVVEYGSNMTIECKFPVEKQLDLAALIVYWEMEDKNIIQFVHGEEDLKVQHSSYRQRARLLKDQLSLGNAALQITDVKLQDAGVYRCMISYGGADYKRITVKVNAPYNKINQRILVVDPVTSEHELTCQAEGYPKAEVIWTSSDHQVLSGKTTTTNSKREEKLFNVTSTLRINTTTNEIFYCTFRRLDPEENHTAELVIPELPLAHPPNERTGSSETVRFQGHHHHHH
# Experiment: PD-1/PD-L1 Homogenous Time-Resolved Fluorescence (HTRF) binding assay (PD-1-Ig/PD-L1-His)
# Details: inhibition of PD-1-Ig binding to PD-L1-TVMV-His; value given as number; read-out: HTRF IC50
# Method in brief: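 HTRF competition in dPBS with 0.1% BSA and 0.05% Tween-20: 20 nM PD-1-Ig added after 15 min compound pre-incubation with 10 nM PD-L1-His, then another 15 min. Signal (665/620 nm) after 30 min with APC anti-His (20 nM) and Eu anti-Ig (1 nM).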
row,IC50 [µM],SMILES
1,0.0092,CCCC[C@H]1C(=O)N(C)[C@@H](CCCC)C(=O)N[C@@H](CCCNC(=N)N)C(=O)N[C@H](C(=O)NCC(=O)NCCCCCCCCCCC(=O)NCCCCCCCCCCC(=O)O)CSCC(=O)N[C@@H](Cc2ccc(O)cc2)C(=O)N(C)[C@@H](C)C(=O)N[C@@H](CC(N)=O)C(=O)N2CCC[C@H]2C(=O)N[C@@H](Cc2cnc[nH]2)C(=O)N[C@@H](CC(C)C)C(=O)N2C[C@H](O)C[C@H]2C(=O)N[C@@H](Cc2c[nH]c3ccccc23)C(=O)N[C@@H](CO)C(=O)N[C@@H](Cc2c[nH]c3ccccc23)C(=O)N1C [Example 11063] ({CH2CO}-Y[NMeA]NPHL[Hyp]WSW[NMeNle][NMeNle]RCG[Aun][Aun]-OH; thioether N-14)

# Same assay, conditions: inhibition of PD-1-Ig binding to PD-L1-TVMV-His; value given as range class; read-out: HTRF IC50
row,SMILES,IC50 [µM]
1,CCCC[C@H]1C(=O)N(C)[C@@H](CCCC)C(=O)N[C@@H](CC(C)C)C(=O)N[C@H](C(=O)NCC(=O)N[C@@H](CC(=O)O)C(=O)NCCCOCCOCCOCCCNC(=O)CC[C@H](NC(=O)CCCCCCCCCCCCCCC(=O)O)C(=O)O)CSCC(=O)N[C@@H](Cc2ccc(O)cc2)C(=O)N(C)[C@@H](C)C(=O)N[C@@H](CC(N)=O)C(=O)N2CCC[C@H]2C(=O)N[C@@H](CN)C(=O)N[C@@H](CC(C)C)C(=O)N2C[C@H](O)C[C@@H]2C(=O)N[C@@H](Cc2c[nH]c3ccccc23)C(=O)N[C@@H](CCN)C(=O)N[C@@H](Cc2cn(CC(=O)O)c3ccccc23)C(=O)N1C [Example 11162] ({CH2CO}-Y[NMeA]NP[Dap]L[d(cisHyp)]W[Dab][Trp(1-CH2COOH)][NMeNle][NMeNle]LCGD-X13; thioether N-14),0.1 to 1.6
2,CCCC[C@H]1C(=O)N(C)[C@@H](CCCC)C(=O)N[C@@H](CCC(=O)O)C(=O)N[C@H](C(=O)NCC(=O)N[C@@H](Cc2cn(CC[C@H](NC(=O)CCCCCCCCCCCCCCC(=O)O)C(=O)O)nn2)C(N)=O)CSCC(=O)N[C@@H](Cc2ccc(O)cc2)C(=O)N(C)[C@@H](C)C(=O)N[C@@H](CC(N)=O)C(=O)N2CCC[C@H]2C(=O)N[C@@H](CN)C(=O)N[C@@H](CC(C)C)C(=O)N2C[C@H](O)C[C@H]2C(=O)N[C@@H](Cc2c[nH]c3ccccc23)C(=O)N[C@@H](CO)C(=O)N[C@@H](Cc2cn(CC(=O)O)c3ccccc23)C(=O)N1C [Example 14070],0.01 to 0.099
3,CCCC[C@H]1C(=O)N(C)[C@@H](CCCC)C(=O)N[C@@H](CC(C)C)C(=O)N[C@H](C(=O)NCCCOCCOCCOCCCNC(=O)CCC(=O)NCCCCCCCCCCC(=O)O)CSCC(=O)N[C@@H](Cc2ccc(O)cc2)C(=O)N(C)[C@@H](C)C(=O)N[C@@H](CCC(=O)O)C(=O)N2CCC[C@H]2C(=O)N[C@@H](Cc2cnc[nH]2)C(=O)N[C@@H](CCCCN)C(=O)N2C[C@H](O)C[C@H]2C(=O)N[C@@H](Cc2c[nH]c3ccccc23)C(=O)N[C@@H](CCCCN)C(=O)N[C@@H](Cc2cn(CC(=O)O)c3ccccc23)C(=O)N1C [Example 11139] ({CH2CO}-Y[NMeA]EPHK[Hyp]WK[Trp(1-CH2COOH)][NMeNle][NMeNle]LC-X14; thioether N-14),0.01 to 0.099
4,CCCC[C@H]1C(=O)N(C)[C@@H](CCCC)C(=O)N[C@@H](CC(C)C)C(=O)N[C@H](C(=O)NCC(=O)N[C@@H](CC(=O)O)C(=O)NCCCOCCOCCOCCCNC(=O)CC[C@H](NC(=O)CCCCCCCCCCCCCCCCC(=O)O)C(=O)O)CSCC(=O)N[C@@H](Cc2ccc(O)cc2)C(=O)N(C)[C@@H](C)C(=O)N[C@@H](CC(N)=O)C(=O)N2CCC[C@H]2C(=O)N[C@@H](CN)C(=O)N[C@@H](CC(C)C)C(=O)N2C[C@H](O)C[C@@H]2C(=O)N[C@@H](Cc2c[nH]c3ccccc23)C(=O)N[C@@H](CCN)C(=O)N[C@@H](Cc2cn(CC(=O)O)c3ccccc23)C(=O)N1C [Example 11166] ({CH2CO}-Y[NMeA]NP[Dap]L[d(cisHyp)]W[Dab][Trp(1-CH2COOH)][NMeNle][NMeNle]LCGD-X6; thioether N-14),0.1 to 1.6

# Second part, the compound after the results:
row,IC50 [µM],SMILES
1,0.0003 to 0.0099,CCCC[C@H]1C(=O)N(C)[C@@H](CCCC)C(=O)N[C@@H](CC(C)C)C(=O)N[C@H](C(=O)NCCCC[C@H](NC(=O)CCCCCCCCCCCCCCCCC(=O)O)C(=O)O)CSCC(=O)N[C@@H](Cc2ccc(O)cc2)C(=O)N(C)[C@@H](C)C(=O)N[C@@H](CC(N)=O)C(=O)N2CCC[C@H]2C(=O)N[C@@H](CN)C(=O)N[C@@H](CC(C)C)C(=O)N2C[C@H](O)C[C@@H]2C(=O)N[C@@H](Cc2c[nH]c3ccccc23)C(=O)N[C@@H](CCN)C(=O)N[C@@H](Cc2cn(CC(=O)O)c3ccccc23)C(=O)N1C [Example 11143] ({CH2CO}-Y[NMeA]NP[Dap]L[d(cisHyp)]W[Dab][Trp(1-CH2COOH)][NMeNle][NMeNle]LC-{εLys(α-Octadecanedioyl)}; thioether N-14)
2,0.0003 to 0.0099,CCCC[C@H]1C(=O)N(C)[C@@H](CCCC)C(=O)N[C@@H](CC(C)C)C(=O)N[C@H](C(=O)NCC(=O)N[C@@H](CC(=O)O)C(=O)NCCCOCCOCCOCCCNC(=O)CC[C@H](NC(=O)CCCCCCCCCCCCC(=O)O)C(=O)O)CSCC(=O)N[C@@H](Cc2ccc(O)cc2)C(=O)N(C)[C@@H](C)C(=O)N[C@@H](CC(N)=O)C(=O)N2CCC[C@H]2C(=O)N[C@@H](CN)C(=O)N[C@@H](CC(C)C)C(=O)N2C[C@H](O)C[C@H]2C(=O)N[C@@H](Cc2c[nH]c3ccccc23)C(=O)N[C@@H](CCN)C(=O)N[C@@H](Cc2cn(CC(=O)O)c3ccccc23)C(=O)N1C [Example 11254] ({CH2CO}-Y[NMeA]NP[Dap]L[Hyp]W[Dab][Trp(1-CH2COOH)][NMeNle][NMeNle]LCGD-X11; thioether N-14)
3,0.0003 to 0.0099,CCCC[C@H]1C(=O)N(C)[C@@H](CCCC)C(=O)N[C@@H](CCCNC(=N)N)C(=O)N[C@H](C(=O)NCC(=O)NCCCOCCOCCOCCCNC(=O)CCC(=O)NCCCCCCCCCCC(=O)O)CSCC(=O)N[C@@H](Cc2ccc(O)cc2)C(=O)N(C)[C@@H](C)C(=O)N[C@@H](CC(=O)O)C(=O)N2CCC[C@H]2C(=O)N[C@@H](Cc2cnc[nH]2)C(=O)N[C@@H](CC(C)C)C(=O)N2C[C@H](O)C[C@H]2C(=O)N[C@@H](Cc2c[nH]c3ccccc23)C(=O)N[C@@H](CO)C(=O)N[C@@H](Cc2c[nH]c3ccccc23)C(=O)N1C [Example 11068] ({CH2CO}-Y[NMeA]DPHL[Hyp]WSW[NMeNle][NMeNle]RCG-X14; thioether N-14)
4,0.01 to 0.099,CCCC[C@H]1C(=O)N(C)[C@@H](CCCC)C(=O)N[C@@H](CC(C)C)C(=O)N[C@H](C(=O)NCCOCCOCCOCC(=O)NCCCCCCCCCCC(=O)O)CSCC(=O)N[C@@H](Cc2ccc(O)cc2)C(=O)N(C)[C@@H](C)C(=O)N[C@@H](CC(N)=O)C(=O)N2CCC[C@H]2C(=O)N[C@@H](CO)C(=O)N[C@@H](CCC(N)=O)C(=O)N2C[C@H](O)C[C@H]2C(=O)N[C@@H](Cc2c[nH]c3ccccc23)C(=O)N[C@@H](CO)C(=O)N[C@@H](Cc2cn(CC(=O)O)c3ccccc23)C(=O)N1C [Example 11085] ({CH2CO}-Y[NMeA]NPSQ[Hyp]WS[Trp(1-CH2COOH)][NMeNle][NMeNle]LC[AEEEA][Aun]-OH; thioether N-14)
5,0.1 to 1.6,CCCCCCCCCCCCCCCC(=O)NCCCC[C@H](NC(=O)[C@H](CO)NC(=O)CNC(=O)CNC(=O)CNC(=O)CNC(=O)[C@@H]1CSCC(=O)N[C@@H](Cc2ccc(O)cc2)C(=O)N(C)[C@@H](C)C(=O)N[C@@H](CC(N)=O)C(=O)N2CCC[C@H]2C(=O)N[C@@H](CCN)C(=O)N[C@@H](CC(C)C)C(=O)N2C[C@H](O)C[C@H]2C(=O)N[C@@H](Cc2c[nH]c3ccccc23)C(=O)N[C@@H](CO)C(=O)N[C@@H](Cc2c[nH]c3ccccc23)C(=O)N(C)[C@@H](CCCC)C(=O)N(C)[C@@H](CCCC)C(=O)N[C@@H](CCCNC(=N)N)C(=O)N1)C(N)=O [Example 11022] ({CH2CO}-Y[NMeA]NP[Dab]L[Hyp]WSW[NMeNle][NMeNle]RCGGGGSK(Palmitoyl)-NH2; thioether N-14)

# Source: patent US10633419B2, “Immunomodulators” (BRISTOL-MYERS SQUIBB COMPANY, priority 2014, dated 2020)
